# Measurements taken from patent publication US8071620B2, “Carbamic acid compounds comprising a bicyclic heteroaryl group as HDAC inhibitors” (Topotarget UK Limited, priority 2003, dated 2011).
# Structures can show the parent of a compound that is named as a salt.
# Columns and labels:
# JURKAT human T-cell line = experiment: Secondary assay: cell proliferation inhibition WST-1, Jurkat; format: cell-based; conditions: Jurkat cells, 48 h
# Experimental: (§1) Compounds with HDAC inhibition activity, as determined using the primary assay, were subsequently evaluated using secondary cell-based assays. The following cell lines were used:
# JURKAT—Human T-cell line (ATCC no. TIB-152).
# (§2) Cells were cultured, exposed to candidate compounds, and incubated for a time, and the number of viable cells was then assessed using the Cell Proliferation Reagent WST-1 from Boehringer Mannheim (Cat. No. 1 644 807), described below.
# (§3) Cells were plated in 96-well plates at 3-10×10^3 cells/well in 100 μL of culture medium. The following day, different concentrations of candidate compounds were added and the cells incubated at 37° C. for 48 h. Subsequently, 10 μL/well of WST-1 reagent was added and the cells reincubated for 1 hour. After the incubation time, absorbance was measured.
# (§4) WST-1 is a tetrazolium salt which is cleaved to formazan dye by cellular enzymes. An expansion in the number of viable cells results in an increase in the overall activity of mitochondrial dehydrogenases in the sample. This augmentation in the enzyme activity leads to an increase in the amount of formazan dye formed, which directly correlates to the number of metabolically active cells in the culture. The formazan dye produced is quantified by a scanning multiwell spectrophotometer by measuring the absorbance of the dye solution at 450 nm wavelength (reference wavelength 690 nm).
# (§5) Percent activity (% activity) in reducing the number of viable cells was calculated for each test compound as: % activity={(S^c−B)/(S°−B)}×100 wherein S^c denotes signal measured in the presence of the compound being tested, S° denotes signal measured in the absence of the compound being tested, and B denotes the background signal measured in blank wells containing medium only. […] IC50 values were calculated using the software package Prism 3.0 (GraphPad Software Inc., San Diego, Calif.), setting top value at 100 and bottom value at 0.
# [1] = system: K11 HPV E7 transformed human keratinocyte line; experiment: Secondary assay: cell proliferation inhibition WST-1, K11; format: cell-based; conditions: K11 cells, 48 h
# Experimental: as §1
# K11—HPV E7 transformed human keratinocyte line provided by Pidder Jansen-Duerr, Institut für Biomedizinische Alternsforschung, Innsbruck, Austria.
# as §3, §4, §5
# HDAC (HeLa cell extract) = experiment: Primary assay: deacetylase activity (HDAC inhibition), HeLa cell extract; design: species or system human; conditions: HeLa cell extract as HDAC source; read-out: Biochemical Assay Data HDAC Inhibition (IC50) HeLa
# Source text: Briefly, this assay relies on the release of radioactive acetate from a radioactively labelled histone fragment by the action of HDAC enzyme. Test compounds, which inhibit HDAC, reduce the yield of radioactive acetate. Signal (e.g., scintillation counts) measured in the presence and absence of a test compound provide an indication of that compound's ability to inhibit HDAC activity. Decreased activity indicates increased inhibition by the test compound.
# The histone fragment was an N-terminal sequence from histone H4, and it was labelled with radioactively labelled acetyl groups using tritiated acetylcoenzyme A (coA) in conjunction with an enzyme which is the histone acetyltransferase domain of the transcriptional coactivator p300. […] The acetylated peptide was then separated from free acetyl coA by size exclusion chromatography on Sephadex G-15 (Sigma G-15-120), using distilled H2O as the mobile phase.
# After purification of the radiolabelled histone fragment, it was incubated with a source of HDAC (e.g., an extract of HeLa cells (a rich source of HDAC), recombinantly produced HDAC1 or HDAC2) and any released acetate was extracted into an organic phase and quantitatively determined using scintillation counting. By including a test compound with the source of HDAC, that compound's ability to inhibit the HDAC was determined.
# Alternatively, the activity of the compounds as HDAC inhibitors was determined using a commercially available fluorescent assay kit: (Fluor de Lys™, BioMol Research Labs, Inc., Plymouth Meeting, USA).
# Extensive comparative studies have shown that Primary Assay (1) and Primary Assay (2), discussed above, yield equivalent results. Primary Assay results reported herein are (a) exclusively from (1); (b) exclusively from (2); or (c) from both (1) and (2).
# The HeLa cell extract was made from HeLa cells (ATCC Ref. No. CCL-2) by freeze-thawing three times in 60 mM TrisCl pH 8.0, 450 mM NaCl, 30% glycerol. Two cell volumes of extraction buffer were used, and particulate material was centrifuged out (20800 g, 4° C., 10 min). The supernatant extract having deacetylase activity was aliquoted and frozen for storage.
# Percent activity (% activity) for each test compound was calculated as: % activity={(S^c−B)/(S°−B)}×100 wherein S^c denotes signal measured in the presence of enzyme and the compound being tested, S° denotes signal measured in the presence of enzyme but in the absence of the compound being tested, and B denotes the background signal measured in the absence of both enzyme and compound being tested.
# HeLa cells = experiment: Secondary assay: cell proliferation inhibition WST-1, HeLa; format: cell-based; conditions: Homo sapiens, 48 h
# Experimental: as §1
# HeLa—Human cervical adenocarcinoma cell line (ATCC ref. No. CCL-2).
# as §2, §3, §4, §5
Compound,melting point,IC50 (HDAC (HeLa cell extract)) [nM],IC50 (HeLa cells) [nM],other results
"O=C(/C=C/c1cnc2ccccc2n1)NO (as salt: sodium) [PX118840, (E)-3-(2-Quinoxalinyl)-N-hydroxy-2-propenamide sodium salt]",200 to 202 °C (dec.),,,
Nc1ccccc1NC(=O)c1ccc(CNC(=O)OCc2cccnc2)cc1 [MS-275],,,,IC50 (JURKAT human T-cell line): 365 nM; IC50 [1]: 9.16 µM
"O=C(/C=C/c1ccc2ccccc2n1)NO [PX117449, (E)-N-Hydroxy-3-(2-quinolinyl)-2-propenamide]",159.5 to 160.5 °C,35,1800,"IC50 (JURKAT human T-cell line; Homo sapiens): 1000 nM; IC50 ([1]; Homo sapiens, Keratinocyte): 12.4 µM"
"O=C(CCc1ccc2ccccc2n1)NO [PX118828, N-Hydroxy-3-(2-quinolinyl)propanamide]",159 to 160 °C,250,27200,
"O=C(/C=C/c1nc2ccccc2o1)NO [PX118835, (E)-3-(1,3-Benzoxazol-2-yl)-N-hydroxy-2-propenamide]",,32,1700,
"Cc1ccc2nc(/C=C/C(=O)NO)ccc2c1 [PX118839, (E)-3-(6-Methyl-2-quinolinyl)-N-hydroxy-2-propenamide]",200 to 202 °C (dec.),40,2400,
"O=C(/C=C/c1cnc2ccccc2n1)NO [PX118840, (E)-3-(2-Quinoxalinyl)-N-hydroxy-2-propenamide sodium salt]",,42,2100,
"Cc1ccc2nc(/C=C/C(=O)NO)cc(C)c2c1 [PX118864, (E)-3-(4,6-Dimethyl-2-quinolinyl)-N-hydroxy-2-propenamide]",199 to 201 °C,609,1300,
"COc1ccc2nc(/C=C/C(=O)NO)ccc2c1Br [PX118865, (E)-3-(5-Bromo-6-methoxy-2-quinolinyl)-N-hydroxy-2-propenamide]",204 to 206 °C,218,1400,
"Cc1nc2ccccc2nc1/C=C/C(=O)NO [PX118866, (E)-N-Hydroxy-3-(3-methyl-2-quinoxalinyl)-2-propenamide]",170 to 172 °C,,33100,
"O=C(/C=C/c1ccc2cccc(OCc3ccccc3)c2n1)NO [PX118867, (E)-3-[8-(Benzyloxy)-2-quinolinyl]-N-hydroxy-2-propenamide]",180 to 182 °C,262,3900,
"Cc1ccc2ccc(/C=C/C(=O)NO)nc2c1 [PX118869, (E)-N-Hydroxy-3-(7-methyl-2-quinolinyl)-2-propenamide]",191 to 193 °C,38,1500,
"O=C(/C=C/c1ccnc2ccccc12)NO [PX118885, (E)-3-(4-Quinolinyl)-N-hydroxy-2-propenamide]",204 to 206 °C,68,2700,
"O=C(/C=C/c1ccc2cc(F)ccc2n1)NO [PX118886, (E)-3-(6-Fluoro-2-quinolinyl)-N-hydroxy-2-propenamide]",,44,2600,
"COc1ccc2nc(/C=C/C(=O)NO)ccc2c1 [PX118887, (E)-N-Hydroxy-3-(6-methoxy-2-quinolinyl)-2-propenamide]",172 to 175 °C,28,1800,
"O=C(/C=C/c1nc2ccccc2s1)NO [PX118915, (E)-3-(1,3-Benzothiazol-2-yl)-N-hydroxy-2-propenamide]",163 to 165 °C,30,7200,
"O=C(/C=C/c1cnc2ccccc2c1)NO [PX118987, (E)-N-Hydroxy-3-(3-quinolinyl)-2-propenamide]",205 to 207 °C,197,3700,
"COc1ccc2nc(C)ccc2c1/C=C/C(=O)NO [PX119038, (E)-N-Hydroxy-3-(6-methoxy-2-methyl-5-quinolinyl)-2-propenamide]",225 to 227 °C,,,
"O=C(/C=C/c1ccc2ncccc2c1)NO [PX119039, (E)-N-Hydroxy-3-(6-quinolinyl)-2-propenamide]",,265,14100,
"O=C(/C=C/c1ccc2cccnc2c1)NO [PX119068, (E)-N-Hydroxy-3-(7-quinolinyl)-2-propenamide]",203 to 205 °C,111,6700,
"O=C(/C=C/c1cccc2cccnc12)NO [PX119071, (E)-3-(8-Quinolinyl)-N-hydroxy-2-propenamide]",159 to 160 °C,,,
"O=C(/C=C/c1cccc2ncccc12)NO [PX119088, (E)-N-Hydroxy-3-(5-quinolinyl)-2-propenamide]",211 to 213 °C,,17800,
"O=C(CCc1nc2ccccc2[nH]c1=O)NO [PX119094, N-Hydroxy-3-(3-oxo-3,4-dihydro-2-quinoxalinyl)propanamide]",213 to 214 °C,,,
"O=C(CCc1ccc2cccc(O)c2n1)NO [PX119095, N-Hydroxy-3-(8-hydroxy-2-quinolinyl)propanamide]",165 to 167 °C,,22300,
"O=C(/C=C/C=C/c1ccc2ccccc2n1)NO [PX119135, (2E,4E)-N-Hydroxy-5-(2-quinolinyl)-2,4-pentadienamide]",160 to 162 °C,330,,
"Cc1ccc2nc(CCC(=O)NO)cc(C)c2c1 [PX119138, 3-(4,6-Dimethyl-2-quinolinyl)-N-hydroxypropanamide]",192 to 194 °C,619,,
"O=C(NO)c1ccc(OCc2ccc3ccccc3n2)cc1 [PX119141, N-Hydroxy-4-(2-quinolinylmethoxy)benzamide]",202 to 204 °C,186,,
"CC(/C=C/C(=O)NO)=C\[C@@H](C)C(=O)c1ccc(N(C)C)cc1 [TSA, trichostatin A]",,,350,"IC50 (JURKAT human T-cell line; Homo sapiens): 42 nM; IC50 ([1]; Homo sapiens, Keratinocyte): 0.38 µM"
oxamflatin,,,,IC50 (JURKAT human T-cell line): 170 nM
